In patent EP4818174A1, “ERIBULIN DERIVATIVE AND ANTIBODY-DRUG CONJUGATE THEREOF, AND MEDICAL USE THEREOF” ([…] CO., LTD., priority 2024, dated 2025):
Counter-ions that a name gives are not always drawn. Like-named read-outs stand apart in the source and are kept apart here.

Assays:
Experiment in all cases: Inhibitory activity on other cancer cell lines (similar method)
Type in all cases: cell-based
MDA-MB-453 = conditions: Homo sapiens
Method: (§1) On the day of the test, the cells were digested with 0.25% trypsin (Gibco, 25200-072), filtered with a sieve with a pore size of 40 µm, diluted with the corresponding medium until a cell density reached 1 × 10^4 cells/mL, and inoculated onto a 96-well white cell culture plate (Beyotime, FCP968), 100 µL of cells were added per well, the culture plate was put in a 37°C incubator (Thermo 311) containing 5% CO2, and the cells were further incubated for 24 hours. On Day 2, to-be-tested samples were prepared into a stock solution at a final concentration of […] with DMSO (Sigma, D1650), then diluted with the corresponding medium until a final concentration reached 200 nM, and then subjected to four-fold serial dilutions, to prepare solutions at a total of 9 concentrations. 100 µL of the diluted sample was added to a 96-well plate, the plate was put in a 37°C incubator containing 5% CO2, and the cells were further incubated for 144 hours. The cell culture plate was removed, 100 µL of cell viability assay agent (CellTiter-Glo® Luminescent Cell Viability Assay, Promega, G7571) was added to each well, and the reaction solution allowed to react in the dark for 5 minutes at room temperature. Luminescence values were read by a microplate reader (TECAN SPARK) and data were processed with Graphpad Prism 7 software.
(§2) Table 2: Inhibitory IC50 Values of Compounds PE-21EK and PE-AM4 in the Present Invention Against Other Cancer Cell Lines

H1975 = conditions: Homo sapiens
Method: as §1, §2

HS578T = conditions: Homo sapiens, Hs-578T, read-out: Inhibitory IC50 values
Method: as §1, §2

SW620 = conditions: Homo sapiens
Method: as §1, §2

NCI-H1650 = conditions: Homo sapiens
Method: as §1, §2

MDAMB231 = conditions: Homo sapiens
Method: as §1, §2

A549 = conditions: Homo sapiens
Method: as §1, §2

MIA PaCa-2 = conditions: Homo sapiens
Method: as §1, §2

IGROV-1 = conditions: Homo sapiens
Method: as §1, §2

22Rv1 = conditions: Homo sapiens
Method: as §1, §2

DU145 = conditions: Homo sapiens
Method: as §1, §2

NSCLC = conditions: read-out: Inhibitory IC50 values
Method: as §1, §2

Lncap cell = conditions: Homo sapiens, read-out: Inhibitory IC50 values
Method: as §1, §2

HCC1937 = conditions: Homo sapiens
Method: as §1, §2

Renal cancer = conditions: read-out: Inhibitory IC50 values
Method: as §1, §2

[1] = MDA-MB-453, cell source Breast cancer, unit inferred, read-out: Inhibitory IC50 values
[2] = NCI-H1975, H1975, cell source NSCLC, unit inferred, read-out: Inhibitory IC50 values
[3] = HS578T, cell source Breast cancer, unit inferred
[4] = SW-620, SW620, cell source Colon cancer, unit inferred, read-out: Inhibitory IC50 values
[5] = NCI-H1650, cell source NSCLC, unit inferred, read-out: Inhibitory IC50 values
[6] = MDA-MB-231, MDAMB231, cell source Breast cancer, unit inferred, read-out: Inhibitory IC50 values
[7] = A549, cell source NSCLC, unit inferred, read-out: Inhibitory IC50 values
[8] = MIA PaCa-2, cell source Pancreatic cancer, unit inferred, read-out: Inhibitory IC50 values
[9] = IGROV-1, cell source Ovarian cancer, unit inferred, read-out: Inhibitory IC50 values
[10] = 22Rv1, cell source Prostate cancer, unit inferred, read-out: Inhibitory IC50 values
[11] = DU-145, DU145, cell source Prostate cancer, unit inferred, read-out: Inhibitory IC50 values
[12] = Lncap cell, cell source Prostate cancer, unit inferred
[13] = HCC1937, cell source Breast cancer, unit inferred, read-out: Inhibitory IC50 values

SMILES | IC50 (MDA-MB-453; [1]) | IC50 (H1975; [2]) | IC50 (HS578T; [3]) | IC50 (SW620; [4]) | IC50 (NCI-H1650; [5]) | IC50 (MDAMB231; [6]) | IC50 (A549; [7]) | IC50 (MIA PaCa-2; [8]) | IC50 (IGROV-1; [9]) | IC50 (22Rv1; [10]) | IC50 (DU145; [11]) | IC50 (NSCLC) | IC50 (Lncap cell; [12]) | IC50 (HCC1937; [13]) | IC50 (Renal cancer) | other results
C=C1C[C@@H]2CC[C@@]34C[C@H]5O[C@H]6[C@@H](O3)[C@H]3O[C@H](CC[C@@H]3O[C@H]6[C@H]5O4)CC(=O)C[C@@H]3[C@@H](OC)[C@@H](CC(=O)N4CC(CO)C4)O[C@H]3C[C@H]3O[C@@H](CC[C@@H]1O2)C[C@@H](C)C3=C [PE-AM4] | 0.151 nM | 0.728 nM | 0.276 nM | 1.3 nM | 1.56 nM | 1.08 nM | 4.92 nM | 1.23 nM | 0.623 nM | 0.741 nM | 0.686 nM | 3.13 nM | 0.457 nM | 0.647 nM | 3.47 nM | 
C=C1C[C@@H]2CC[C@@]34C[C@H]5O[C@H]6[C@@H](O3)[C@H]3O[C@H](CC[C@@H]3O[C@H]6[C@H]5O4)CC(=O)C[C@@H]3[C@@H](OC)[C@@H](C[C@H](O)CN)O[C@H]3C[C@H]3O[C@@H](CC[C@@H]1O2)C[C@@H](C)C3=C [PE-E, eribulin mesylate, reference compound] |  |  |  |  |  |  |  |  |  |  |  | 0.649 nM |  |  | 0.755 nM | IC50 (MDA-MB-453; MDA-MB-453, read-out: Inhibitory IC50 values): 19.3 nM; IC50 (H1975; NCI-H1975, read-out: Inhibitory IC50 values): 0.505 nM; IC50 (HS578T): 0.188 nM; IC50 (SW620; SW-620, read-out: Inhibitory IC50 values): 0.419 nM; IC50 (NCI-H1650; NCI-H1650, read-out: Inhibitory IC50 values): 2.35 nM; IC50 (MDAMB231; MDA-MB-231, read-out: Inhibitory IC50 values): 0.805 nM; IC50 (A549; A549, read-out: Inhibitory IC50 values): 4.17 nM; IC50 (MIA PaCa-2; MIA PaCa-2, read-out: Inhibitory IC50 values): 0.668 nM; IC50 (IGROV-1; IGROV-1, read-out: Inhibitory IC50 values): 0.439 nM; IC50 (22Rv1; 22Rv1, read-out: Inhibitory IC50 values): 0.618 nM; IC50 (DU145; DU-145, read-out: Inhibitory IC50 values): 1.68 nM; IC50 (Lncap cell; LNCaP): 1.3 nM; IC50 (HCC1937; HCC1937, read-out: Inhibitory IC50 values): 2.85 nM
C=C1C[C@@H]2CC[C@@]34C[C@H]5O[C@H]6[C@@H](O3)[C@H]3O[C@H](CC[C@@H]3O[C@H]6[C@H]5O4)CC(=O)C[C@@H]3[C@@H](OC)[C@@H](CC(=O)CNC(=O)OCCCCCO)O[C@H]3C[C@H]3O[C@@H](CC[C@@H]1O2)C[C@@H](C)C3=C [PE-21EK] | 0.0846 nM | 0.0708 nM | 0.0207 nM | 0.0221 nM | 0.262 nM | 0.218 nM | 0.194 nM | 0.158 nM | 0.289 nM | 0.125 nM | 0.501 nM | 0.184 nM | 0.123 nM | 0.104 nM | 0.102 nM | 
